Where no end group is shown, it is not given here. The star is where a group is joined. tBu = CC(C)(C)*
Columns and labels:
[1] = test system: mouse aorta rings; assay: Vascular sprouting in vitro in three-dimensional fibrin gels; assay type: cell-based; settings: vascular rings in 3D fibrin gels, day 3
Protocol: Vascular sprouting from mouse aorta rings was assessed in three-dimensional fibrin gels preparations according to the method described by Brown et al (15), with minor modifications. Quantitative evaluation of newly formed structures was carried out at day 3. The area covered by vascular sprouts was quantified in microscopic units (0.21 mm^2).
The formation of capillary-like structures in vascular rings cultured in 3D fibrin gels was used to test angiogenesis in vitro. Fragment I and IV inhibited the spontaneous growth of capillaries and the one induced by FGF-2 and VEGF. As an example the effect of 100 ng/ml concentration of either fragment is shown (FIG. 3A).
FIG. 3: Effect of endostatin fragments on angiogenesis in vitro (A) and in vivo (B). A. In vitro vessel sprouting from rings of mouse aortas was induced by FGF-2 (10 ng/ml). Fragments I and IV were used at […]. Data are reported as mean area occupied by tubules-like structures after 3 days from stimulation. Numbers are means of one representative experiment out of two run in triplicate.

[2] = test system: endothelial cells; assay: In vitro inhibition test on endothelial cells proliferation and migration; assay type: cell-based
Excerpt: These polypeptides have remarkable antiangiogenic activity in the in vitro inhibition test on endothelial cells proliferation and migration (16).

[3] = test system: coronary venular endothelial cells (CVEC); assay: Proliferation studies (total cell number), postcapillary venule endothelial cells; assay type: cell-based, bovine; settings: 10 to 1000 ng/ml, 48 hr, FGF-2 and VEGF 20 ng/ml each
Excerpt: The coronary venular endothelial cells (CVEC) were isolated and cultured as previously described (8).
Cell proliferation was quantified by total cell number as reported (12,13).
Cell proliferation was quantified by counting the total number of cells after 48 hr treatment. Endothelial cells isolated from postcapillary venules were used to test the effect on angiogenesis. […] The effect was more pronounced on FGF-2-induced growth. […] Similar effects were obtained on all the endothelial cell lines tested (FIG. 1E).
C-E: Effect of endostatin fragments on endothelial cell proliferation. Endothelial cell (C,D: CVEC; E, MAE) proliferation was stimulated with FGF-2 and VEGF (20 ng/ml each). Data are expressed as number of cells counted/well after 48 hr incubation with test substances. Numbers are means±SEM of 6 and 2 experiments run in triplicate for CVEC and ME, respectively.

[4] = test system: microvascular endothelial cells; settings: E. coli expressed protein; cited from earlier work

| Substance | growth of capillaries induced by FGF-2 and VEGF [1] | spontaneous growth of capillaries [1] | potency compared with endostatin [2] | cell growth induced by FGF-2 and VEGF [3] | FGF-2 and VEGF induced proliferation and migration [4] |
| --- | --- | --- | --- | --- | --- |
| His-Thr-His-Gln-Asp-Phe-Gln-Pro-Val-Leu-His-Leu-Val-Ala-Leu-Asn-Thr-Pro-Leu-Ser-Gly-Gly-Met-Arg-Gly-Ile-Arg-Gly-Ala-Asp-Phe-Gln-Cys(tBu)-Phe-Gln-Gln-Ala-Arg-Ala (HTHQDFQPVLHLVALNTPLSGGMRGIRGADFQC(tBu)FQQARA) [Fragment I] | inhibited | inhibited | equipotential to endostatin |  |  |
| Cys-Glu-Thr-Trp-Arg-Thr-Glu-Thr-Thr-Gly-Ala-Thr-Gly-Gln-Ala-Ser-Ser-Leu-Leu-Ser-Gly-Arg-Leu-Leu-Glu-Gln-Lys-Ala-Ala-Ser-Cys-His-Asn-Ser-Tyr-Ile-Val-Leu-Cys(tBu)-Ile-Glu-Asn-Ser-Phe-Met-Thr-Ser-Phe-Ser-Lys (CETWRTETTGATGQASSLLSGRLLEQKAASCHNSYIVLC(tBu)IENSFMTSFSK; cysteine pairing not given here) [Fragment IV] | inhibited | inhibited |  | most potent |  |
| endostatin |  |  |  |  | able to block |
